Reference: US4292428A, “Cephalosporin derivatives” (Hoffmann-La Roche Inc., priority 1978, dated 1981)
Where two headings read alike, the source gives them in different places.

Key:
Escherichia coli = assay: Activity in vivo: mice infected intraperitoneally with Escherichia coli, survival on the 4th day; settings: 96 h, survivors on 4th day, by interpolation, read-out: CD50 (dosage at which 50% of the mice survive)
Method: Groups of 5 mice are infected intraperitoneally with an aqueous suspension of Escherichia coli. The derivative to be tested is administered orally or subcutaneously 1, 2.5 and 4 hours after the infection. The number of surviving mice is determined on the 4th day. Various dosages of the derivative are administered and the dosage at which 50% of the mice survive (CD50, mg/kg) is determined by interpolation.

[1] = Toxicity (mice, 24 hour value); settings: mouse, in vivo, po
Method: |Toxicity: (mice, 24 hour value)

[2] = oral, 1, 2.5 and 4 hours after intraperitoneal infection
[3] = sc, subcutaneous, 1, 2.5 and 4 hours after intraperitoneal infection

| Compound | ED50 (Escherichia coli; [2]) [mg/kg] | ED50 (Escherichia coli; [3]) [mg/kg] | LD50 at 24 h [1] [mg/kg] |
| --- | --- | --- | --- |
| CON=C(C(=O)NC1C(=O)N2C(C(=O)OCOC(=O)C(C)(C)C)=C(CSc3n[nH]c(=O)c(=O)n3C)CSC12)c1ccco1 [Derivative A, Methylene-(6R,7R)-7-[2-(2-furyl)-2-(methoxyimino)-acetamido]-8-oxo-3-[[(1,4,5,6-tetrahydro-4-methyl-5,6-dioxo-as-triazin-3-yl)thio]methyl]-5-thia-1-azabicyclo-[4.2.0]oct-2-ene-2-carboxylate pivalate (Z-isomer)] | 0.05 | 0.02 | 2500 to 5000 |
| CON=C(C(=O)NC1C(=O)N2C(C(=O)OCOC(=O)C(C)(C)C)=C(CSc3nc(=O)c(OCOC(=O)C(C)(C)C)nn3C)CSC12)c1ccco1 [Derivative B, Methylene-(6R,7R)-3-{[[2,5-dihydro-2-methyl-5-oxo-6-[(pivaloyloxy)methoxy]-as-triazin-3-yl]thio]methyl}-7-[2-(2-furyl)-2-(methoxyimino)acetamido]-8-oxo-5-thia-1-azabicyclo[4.2.0]oct-2-ene-2-carboxylate pivalate (Z-isomer)] | 0.03 | 0.02 | 1250 to 2500 |
